Measured values reported in patent publication US20230257396A1, “MACROCYCLES AND THEIR USE” (BLOSSOMHILL THERAPEUTICS, INC., priority 2020, published 2023).
Substitutions are numbered along the chain they refer to.

How the values were obtained:
Assay in all cases: KINOMEscan kinase binding assay (Eurofins/DiscoveRx), % Ctrl
kinases [1] = molecular target: T1, kinases (Homo sapiens, UniProt P42684)
T1 construct: purchased Eurofins/DiscoveRx; host or cells: E. coli BL21-derived host (T7 phage display) for most kinases; HEK-293 for the rest
T1 sequence (P42684 whole entry): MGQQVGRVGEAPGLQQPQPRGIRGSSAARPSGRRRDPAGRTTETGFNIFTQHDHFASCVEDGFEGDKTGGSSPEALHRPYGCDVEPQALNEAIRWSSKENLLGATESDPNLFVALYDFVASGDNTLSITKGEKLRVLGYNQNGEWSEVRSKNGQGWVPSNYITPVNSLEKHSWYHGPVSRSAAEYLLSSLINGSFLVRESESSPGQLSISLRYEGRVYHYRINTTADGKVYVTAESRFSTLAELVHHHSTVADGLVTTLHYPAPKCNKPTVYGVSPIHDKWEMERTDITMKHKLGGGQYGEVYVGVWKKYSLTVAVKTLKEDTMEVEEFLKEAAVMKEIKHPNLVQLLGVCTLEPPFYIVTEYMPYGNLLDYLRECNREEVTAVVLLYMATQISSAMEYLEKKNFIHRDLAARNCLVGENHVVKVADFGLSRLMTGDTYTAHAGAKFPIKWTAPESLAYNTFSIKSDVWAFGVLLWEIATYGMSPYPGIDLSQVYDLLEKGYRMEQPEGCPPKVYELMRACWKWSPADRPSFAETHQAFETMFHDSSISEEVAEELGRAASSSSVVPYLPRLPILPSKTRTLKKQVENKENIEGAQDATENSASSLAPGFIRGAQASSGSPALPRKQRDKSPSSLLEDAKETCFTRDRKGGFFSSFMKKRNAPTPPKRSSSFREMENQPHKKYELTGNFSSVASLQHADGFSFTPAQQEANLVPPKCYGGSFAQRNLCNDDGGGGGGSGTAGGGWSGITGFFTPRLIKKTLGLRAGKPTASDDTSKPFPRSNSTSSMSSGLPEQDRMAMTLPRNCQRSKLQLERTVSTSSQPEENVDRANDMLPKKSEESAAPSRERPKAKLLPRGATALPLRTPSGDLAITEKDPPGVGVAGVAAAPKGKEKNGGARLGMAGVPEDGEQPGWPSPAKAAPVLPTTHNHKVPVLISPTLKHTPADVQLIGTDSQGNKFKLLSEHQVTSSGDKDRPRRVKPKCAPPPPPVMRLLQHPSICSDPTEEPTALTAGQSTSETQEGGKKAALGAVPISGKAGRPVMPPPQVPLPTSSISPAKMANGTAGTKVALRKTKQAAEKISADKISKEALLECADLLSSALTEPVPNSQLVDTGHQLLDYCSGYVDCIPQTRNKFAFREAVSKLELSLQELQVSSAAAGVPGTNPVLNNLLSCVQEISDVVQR
Summary of the method: (§1)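 Read-out is qPCR of kinase eluted from ligand-coated streptavidin beads after 1 h room-temperature competition with test compound. Values are % Ctrl at the tested concentration, lower meaning tighter binding.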

kinases [2] = molecular target: T2, kinases (Homo sapiens, UniProt P36888, K663Q)
T2 construct: purchased Eurofins/DiscoveRx; host or cells: E. coli BL21-derived host (T7 phage display) for most kinases; HEK-293 for the rest
T2 sequence (P36888 27-993 K663Q): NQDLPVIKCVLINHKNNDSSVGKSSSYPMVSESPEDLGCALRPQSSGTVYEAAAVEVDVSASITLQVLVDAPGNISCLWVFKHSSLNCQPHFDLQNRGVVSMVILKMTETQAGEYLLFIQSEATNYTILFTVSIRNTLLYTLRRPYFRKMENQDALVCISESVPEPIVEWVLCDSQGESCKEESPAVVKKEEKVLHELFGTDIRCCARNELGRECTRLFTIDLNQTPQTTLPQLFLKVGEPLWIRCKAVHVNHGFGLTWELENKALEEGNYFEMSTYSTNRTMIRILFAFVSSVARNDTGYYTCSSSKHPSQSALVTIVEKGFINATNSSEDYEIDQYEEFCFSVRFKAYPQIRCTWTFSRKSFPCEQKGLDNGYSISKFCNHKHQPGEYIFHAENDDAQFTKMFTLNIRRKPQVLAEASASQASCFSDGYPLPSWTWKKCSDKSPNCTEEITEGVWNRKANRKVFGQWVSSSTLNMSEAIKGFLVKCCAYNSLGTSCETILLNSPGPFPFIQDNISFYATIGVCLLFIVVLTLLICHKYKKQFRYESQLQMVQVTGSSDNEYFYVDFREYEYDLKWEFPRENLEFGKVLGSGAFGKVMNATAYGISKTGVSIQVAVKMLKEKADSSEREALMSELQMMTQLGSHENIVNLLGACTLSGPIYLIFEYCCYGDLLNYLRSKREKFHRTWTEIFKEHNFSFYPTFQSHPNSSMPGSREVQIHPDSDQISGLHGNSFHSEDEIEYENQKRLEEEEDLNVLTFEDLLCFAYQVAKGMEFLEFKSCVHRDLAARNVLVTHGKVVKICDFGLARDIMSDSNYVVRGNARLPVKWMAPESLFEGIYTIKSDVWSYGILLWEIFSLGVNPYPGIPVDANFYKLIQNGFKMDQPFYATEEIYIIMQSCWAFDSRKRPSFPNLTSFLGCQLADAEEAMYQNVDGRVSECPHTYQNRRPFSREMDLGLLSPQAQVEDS
Summary of the method: as §1

kinases [3] = molecular target: T3, kinases (Homo sapiens, UniProt P10721)
T3 construct: purchased Eurofins/DiscoveRx; host or cells: E. coli BL21-derived host (T7 phage display) for most kinases; HEK-293 for the rest
T3 sequence (P10721 26-976): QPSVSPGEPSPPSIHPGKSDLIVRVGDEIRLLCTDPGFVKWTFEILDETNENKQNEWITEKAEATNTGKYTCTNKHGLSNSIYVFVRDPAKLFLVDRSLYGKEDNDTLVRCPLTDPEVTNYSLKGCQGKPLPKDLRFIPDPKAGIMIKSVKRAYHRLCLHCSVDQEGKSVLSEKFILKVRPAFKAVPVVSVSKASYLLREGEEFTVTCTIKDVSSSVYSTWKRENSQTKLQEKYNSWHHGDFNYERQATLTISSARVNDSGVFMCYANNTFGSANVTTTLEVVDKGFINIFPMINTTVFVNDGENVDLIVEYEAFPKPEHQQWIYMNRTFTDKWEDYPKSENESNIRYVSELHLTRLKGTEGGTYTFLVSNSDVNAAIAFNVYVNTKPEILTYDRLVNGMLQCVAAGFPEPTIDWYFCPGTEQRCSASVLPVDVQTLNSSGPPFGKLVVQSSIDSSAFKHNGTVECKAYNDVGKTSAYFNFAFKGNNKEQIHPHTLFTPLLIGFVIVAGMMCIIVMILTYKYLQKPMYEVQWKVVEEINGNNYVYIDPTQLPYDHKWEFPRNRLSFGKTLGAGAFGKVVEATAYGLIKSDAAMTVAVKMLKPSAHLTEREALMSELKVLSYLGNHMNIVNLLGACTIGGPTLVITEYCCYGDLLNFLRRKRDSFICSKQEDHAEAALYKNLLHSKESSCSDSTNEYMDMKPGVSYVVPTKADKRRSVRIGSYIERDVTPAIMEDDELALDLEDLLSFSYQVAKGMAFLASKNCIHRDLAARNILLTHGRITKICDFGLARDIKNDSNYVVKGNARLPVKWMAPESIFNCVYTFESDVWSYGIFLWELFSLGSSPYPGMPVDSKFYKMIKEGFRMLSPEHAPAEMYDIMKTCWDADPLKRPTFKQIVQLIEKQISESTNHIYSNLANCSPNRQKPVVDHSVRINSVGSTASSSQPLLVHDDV
Summary of the method: as §1

kinases [4] = molecular target: T4, kinases (Homo sapiens, UniProt P36888)
T4 construct: purchased Eurofins/DiscoveRx; host or cells: E. coli BL21-derived host (T7 phage display) for most kinases; HEK-293 for the rest
T4 sequence (P36888 27-993): T2 sequence (P36888 27-993 K663Q) with Q637K
Summary of the method: as §1

kinases [5] = molecular target: T5, kinases (Homo sapiens, UniProt P00533, L858R/T790M)
T5 construct: purchased Eurofins/DiscoveRx; host or cells: E. coli BL21-derived host (T7 phage display) for most kinases; HEK-293 for the rest
Summary of the method: as §1

kinases [6] = molecular target: T6, kinases (Homo sapiens, UniProt P10721, D816V)
T6 construct: purchased Eurofins/DiscoveRx; host or cells: E. coli BL21-derived host (T7 phage display) for most kinases; HEK-293 for the rest
T6 sequence (P10721 26-976 D816V): as the sequence (P10721 26-976) above, with D791V counted along it
Summary of the method: as §1

Cc1cc2c([nH]1)/C=C1\C(=O)Nc3cc(Cl)c(cc31)OCCOCCN(C)C2=O [Ex. 131, [16a(17)Z]-19-chloro-2,5-dimethyl-6,7,9,10-tetrahydro-1H-12,14-(ethanediylidene)dipyrrolo[3,2-i:3′,4′-l][1,4,7]dioxazacyclopentadecine-4,16(5H,15H)-dione]
% Ctrl, ABL2 (kinases [1]; 1 μM; ABL2): 1.8 % Ctrl | % Ctrl, FLT3(K663Q) (kinases [2]; 1 μM; FLT3(K663Q)): 7.4 % Ctrl | % Ctrl, KIT (kinases [3]; 1 μM; KIT): 1.1 % Ctrl | % Ctrl, KIT-autoinhibited (kinases [3]; 1 μM; KIT-autoinhibited): 13 % Ctrl | % Ctrl, FLT3 (kinases [4]; 1 μM; FLT3): 0.6 % Ctrl | % Ctrl, FLT3-autoinhibited (kinases [4]; 1 μM; FLT3-autoinhibited): 5.1 % Ctrl | % Ctrl, EGFR(L858R, T790M) (kinases [5]; 1 μM; EGFR(L858R, T790M)): 35 % Ctrl | % Ctrl, KIT(D816V) (kinases [6]; 1 μM; KIT(D816V)): 1.2 % Ctrl

Cc1cc2c([nH]1)/C=C1\C(=O)Nc3cnc(cc31)-c1cnn(C)c1COCCNC2=O [Ex.123, [3a(4)Z]-6,14-dimethyl-10,11,13,14-tetrahydro-2H-17,1-(azenometheno)pyrazolo[4,3-m]dipyrrolo[3,2-f:3′,4′-i][1,4]oxazacyclopentadecine-3,8(5H,9H)-dione]
% Ctrl, ABL2 (kinases [1]; 1 μM; ABL2): 100 % Ctrl | % Ctrl, FLT3(K663Q) (kinases [2]; 1 μM; FLT3(K663Q)): 77 % Ctrl | % Ctrl, KIT (kinases [3]; 1 μM; KIT): 97 % Ctrl | % Ctrl, KIT-autoinhibited (kinases [3]; 1 μM; KIT-autoinhibited): 97 % Ctrl | % Ctrl, FLT3 (kinases [4]; 1 μM; FLT3): 87 % Ctrl | % Ctrl, FLT3-autoinhibited (kinases [4]; 1 μM; FLT3-autoinhibited): 100 % Ctrl | % Ctrl, EGFR(L858R, T790M) (kinases [5]; 1 μM; EGFR(L858R, T790M)): 92 % Ctrl | % Ctrl, KIT(D816V) (kinases [6]; 1 μM; KIT(D816V)): 100 % Ctrl

CNC(=O)[C@H]1CN(C)C(=O)c2cc(C)[nH]c2/C=C2\C(=O)Nc3cc(Cl)c(cc32)OCCO1 [Ex. 135, [7R,16a(17)Z]-19-chloro-N,2,5-trimethyl-4,16-dioxo-4,5,6,7,9,10,15,16-octahydro-1H-12,14-(ethanediylidene)dipyrrolo[3,2-i:3′,4′-l][1,4,7]dioxazacyclopentadecine-7-carboxamide]
% Ctrl, ABL2 (kinases [1]; 1 μM; ABL2): 85 % Ctrl | % Ctrl, FLT3(K663Q) (kinases [2]; 1 μM; FLT3(K663Q)): 66 % Ctrl | % Ctrl, KIT (kinases [3]; 1 μM; KIT): 55 % Ctrl | % Ctrl, KIT-autoinhibited (kinases [3]; 1 μM; KIT-autoinhibited): 82 % Ctrl | % Ctrl, FLT3 (kinases [4]; 1 μM; FLT3): 57 % Ctrl | % Ctrl, FLT3-autoinhibited (kinases [4]; 1 μM; FLT3-autoinhibited): 89 % Ctrl | % Ctrl, EGFR(L858R, T790M) (kinases [5]; 1 μM; EGFR(L858R, T790M)): 93 % Ctrl | % Ctrl, KIT(D816V) (kinases [6]; 1 μM; KIT(D816V)): 76 % Ctrl

Cc1cc2c([nH]1)/C=C1\C(=O)Nc3ccc(cc31)-c1c(noc1C)COCCN(C)C2=O [Ex. 128, [3a(4)Z]-6,9,16-trimethyl-1,11-dihydro-2H,13H-1,17-(ethanediylidene)[1,4]oxazolo[4,3-m]dipyrrolo[3,2-f:3′,4′-i][1,4]oxazacyclopentadecine-3,8(5H,9H)-dione]
% Ctrl, ABL2 (kinases [1]; 1 μM; ABL2): 91 % Ctrl | % Ctrl, FLT3(K663Q) (kinases [2]; 1 μM; FLT3(K663Q)): 77 % Ctrl | % Ctrl, KIT (kinases [3]; 1 μM; KIT): 98 % Ctrl | % Ctrl, KIT-autoinhibited (kinases [3]; 1 μM; KIT-autoinhibited): 97 % Ctrl | % Ctrl, FLT3 (kinases [4]; 1 μM; FLT3): 66 % Ctrl | % Ctrl, FLT3-autoinhibited (kinases [4]; 1 μM; FLT3-autoinhibited): 89 % Ctrl | % Ctrl, EGFR(L858R, T790M) (kinases [5]; 1 μM; EGFR(L858R, T790M)): 48 % Ctrl | % Ctrl, KIT(D816V) (kinases [6]; 1 μM; KIT(D816V)): 84 % Ctrl

Cc1cc2c([nH]1)/C=C1\C(=O)Nc3ccc(cc31)-c1ccnn1CCNCCNC2=O [Ex. 43, [19a(20)Z]-2-methyl-5,6,7,8,9,10-hexahydro-15,17-(ethanediylidene)pyrazolo[1,5-g]dipyrrolo[3,4-k:2′,3′-n][1,4,7]triazacyclohexadecine-4,19(1H,18H)-dione]
% Ctrl, ABL2 (kinases [1]; 1 μM; ABL2): 100 % Ctrl | % Ctrl, FLT3(K663Q) (kinases [2]; 1 μM; FLT3(K663Q)): 72 % Ctrl | % Ctrl, KIT (kinases [3]; 1 μM; KIT): 100 % Ctrl | % Ctrl, KIT-autoinhibited (kinases [3]; 1 μM; KIT-autoinhibited): 81 % Ctrl | % Ctrl, FLT3 (kinases [4]; 1 μM; FLT3): 99 % Ctrl | % Ctrl, FLT3-autoinhibited (kinases [4]; 1 μM; FLT3-autoinhibited): 77 % Ctrl | % Ctrl, EGFR(L858R, T790M) (kinases [5]; 1 μM; EGFR(L858R, T790M)): 98 % Ctrl | % Ctrl, KIT(D816V) (kinases [6]; 1 μM; KIT(D816V)): 96 % Ctrl

Cc1cc2c([nH]1)/C=C1\C(=O)Nc3ccc(cc31)O[C@@H](C)COCCN(C)C2=O [Ex. 92, [10S,16a(17)Z]-2,5,10-trimethyl-6,7,9,10-tetrahydro-1H-12,14-(ethanediylidene)dipyrrolo[3,2-i:3′,4′-l][1,4,7]dioxazacyclopentadecine-4,16(5H,15H)-dione]
% Ctrl, ABL2 (kinases [1]; 1 μM; ABL2): 43 % Ctrl | % Ctrl, FLT3(K663Q) (kinases [2]; 1 μM; FLT3(K663Q)): 57 % Ctrl | % Ctrl, KIT (kinases [3]; 1 μM; KIT): 91 % Ctrl | % Ctrl, KIT-autoinhibited (kinases [3]; 1 μM; KIT-autoinhibited): 100 % Ctrl | % Ctrl, FLT3 (kinases [4]; 1 μM; FLT3): 77 % Ctrl | % Ctrl, FLT3-autoinhibited (kinases [4]; 1 μM; FLT3-autoinhibited): 96 % Ctrl | % Ctrl, EGFR(L858R, T790M) (kinases [5]; 1 μM; EGFR(L858R, T790M)): 100 % Ctrl | % Ctrl, KIT(D816V) (kinases [6]; 1 μM; KIT(D816V)): 59 % Ctrl

Cc1cc2c([nH]1)/C=C1\C(=O)Nc3ccc(cc31)-c1ccnn1CCOCCN(C)C2=O [Ex. 41, [19a(20)Z]-2,5-dimethyl-6,7,9,10-tetrahydro-1H-15,17-(ethanediylidene)pyrazolo[1,5-d]dipyrrolo[3,4-h:2′,3′-k][1,4,14]oxadiazacyclohexadecine-4,19(5H,18H)-dione]
% Ctrl, ABL2 (kinases [1]; 1 μM; ABL2): 77 % Ctrl | % Ctrl, FLT3(K663Q) (kinases [2]; 1 μM; FLT3(K663Q)): 17 % Ctrl | % Ctrl, KIT (kinases [3]; 1 μM; KIT): 58 % Ctrl | % Ctrl, KIT-autoinhibited (kinases [3]; 1 μM; KIT-autoinhibited): 78 % Ctrl | % Ctrl, FLT3 (kinases [4]; 1 μM; FLT3): 5.5 % Ctrl | % Ctrl, FLT3-autoinhibited (kinases [4]; 1 μM; FLT3-autoinhibited): 50 % Ctrl | % Ctrl, EGFR(L858R, T790M) (kinases [5]; 1 μM; EGFR(L858R, T790M)): 17 % Ctrl | % Ctrl, KIT(D816V) (kinases [6]; 1 μM; KIT(D816V)): 38 % Ctrl

Cc1cc2c([nH]1)/C=C1\C(=O)Nc3cnc(cc31)-c1cnn(C)c1CN(C)CCN(C)C2=O [Ex. 172, [3a(4)Z]-6,9,12,14-tetramethyl-9,10,11,12,13,14-hexahydro-17,1-(azenometheno)pyrazolo[4,3-m]dipyrrolo[3,2-f:3′,4′-i][1,4]diazacyclopentadecine-3,8(2H,5H)-dione]
% Ctrl, ABL2 (kinases [1]; 1 μM; target ABL2): 4.2 % Ctrl | % Ctrl, FLT3(K663Q) (kinases [2]; 1 μM; target FLT3(K663Q)): 0.6 % Ctrl | % Ctrl, KIT (kinases [3]; 1 μM; target KIT): 68 % Ctrl | % Ctrl, KIT-autoinhibited (kinases [3]; 1 μM; target KIT-autoinhibited): 100 % Ctrl | % Ctrl, FLT3 (kinases [4]; 1 μM; target FLT3): 8.5 % Ctrl | % Ctrl, FLT3-autoinhibited (kinases [4]; 1 μM; target FLT3-autoinhibited): 90 % Ctrl | % Ctrl, EGFR(L858R, T790M) (kinases [5]; 1 μM; target EGFR(L858R, T790M)): 3.3 % Ctrl | % Ctrl, KIT(D816V) (kinases [6]; 1 μM; target KIT(D816V)): 0.8 % Ctrl

Cc1cc2c([nH]1)/C=C1\C(=O)Nc3ccc(cc31)-c1c(noc1C)CNCCN(C)C2=O [Ex. 139, [3a(4)Z]-6,9,16-trimethyl-10,11,12,13-tetrahydro-2H-1,17-(ethanediylidene)[1,2]oxazolo[4,3-m]dipyrrolo[3,2-f:3′,4′-i][1,4]diazacyclopentadecine-3,8(5H,9H)-dione]
% Ctrl, ABL2 (kinases [1]; target ABL2; 1 μM): 70 % Ctrl | % Ctrl, FLT3(K663Q) (kinases [2]; target FLT3(K663Q); 1 μM): 44 % Ctrl | % Ctrl, KIT-autoinhibited (kinases [3]; target KIT-autoinhibited; 1 μM): 81 % Ctrl | % Ctrl, KIT (kinases [3]; target KIT; 1 μM): 94 % Ctrl | % Ctrl, FLT3-autoinhibited (kinases [4]; target FLT3-autoinhibited; 1 μM): 67 % Ctrl | % Ctrl, FLT3 (kinases [4]; target FLT3; 1 μM): 33 % Ctrl | % Ctrl, EGFR(L858R, T790M) (kinases [5]; target EGFR(L858R, T790M); 1 μM): 17 % Ctrl | % Ctrl, KIT(D816V) (kinases [6]; target KIT(D816V); 1 μM): 63 % Ctrl
